Laboratory results: patent US20210393521A1, “PREPARATION OF A PHARMACEUTICAL COMPOSITION OF OLODATEROL, TIOTROPIUM BROMIDE AND BUDESONIDE” (priority 2020, published 2021)
≈ marks a conversion by molar mass, not a printed value.

Assays:
[1] = background statement; cited from earlier work
[2] = Solubility test of BD in SBECD and Tween 80 solutions; assay type: physicochemical
Procedure: Solubility test to investigate the solubilizing effect of SBECD and Tween 80 as solubilizers on BD, and to investigate the solubility of BD at different concentrations.
Investigation of the solubility of BD under different concentrations of SBECD: Weigh 0.1 g, 0.3 g, 0.5 g, and 1.0 g of […] into a 10 ml EP tube, add 10 ml of pure water, and shake until the […] is completely dissolved, then add excess BD (about 500 mg/100 mL), and wrap the EP tube in tin foil to protect from light. After protecting from light, place the EP tube on a shaker, shake for 24 hours, and centrifuge to collect the supernatant.

| BD Solubility ([2]; SBECD concentration 1%) [mg/100 ml] | BD Solubility ([2]; SBECD concentration 3%) [mg/100 ml] | BD Solubility ([2]; SBECD concentration 5%) [mg/100 ml] | BD Solubility ([2]; SBECD concentration 10%) [mg/100 ml] | BD Solubility ([2]; Tween 80 concentration 5 mg/100 ml) [mg/100 ml] | BD Solubility ([2]; Tween 80 concentration 10 mg/100 ml) [mg/100 ml] | BD Solubility ([2]; Tween 80 concentration 20 mg/100 ml) [mg/100 ml] | BD Solubility ([2]; Tween 80 concentration 1%) [mg/100 ml] | BD Solubility ([2]; Tween 80 concentration 3%) [mg/100 ml] | BD Solubility ([2]; Tween 80 concentration 5%) [mg/100 ml] | BD Solubility ([2]; Tween 80 concentration 10%) [mg/100 ml] | solubility at 24 h ([2]; Tween 80 solution in water, aqueous with cosolvent or surfactant or cyclodextrin, thermodynamic from solid, Tween 80 concentration 20 mg/100 ml) [µg/mL] | SMILES | half-life [1] | maintains bronchiectatic activity for [1] [h] |
| --- | --- | --- | --- | --- | --- | --- | --- | --- | --- | --- | --- | --- | --- | --- |
|  |  |  |  |  |  |  |  |  |  |  |  | COc1ccc(CC(C)(C)NC[C@H](O)c2cc(O)cc3c2OCC(=O)N3)cc1 [Olodaterol, 6-hydroxy-8-[(1R)-1-hydroxy-2-{[1-(4-methoxyphenyl)-2-methylpropan-2-yl]amino}ethyl]-3,4-dihydro-2H-1,4-benzoxazin-3-one] | more than 12 h | 24 |
| 16.91 | 40.28 | 61.91 | 81.3 | 0.224 | 0.256 | 0.292 | 16.54 | 38.88 | 64.84 | 118.79 | 2.92 (≈ 6.78 µM) | CCCC1O[C@@H]2C[C@H]3[C@@H]4CCC5=CC(=O)C=C[C@]5(C)[C@H]4[C@@H](O)C[C@]3(C)[C@]2(C(=O)CO)O1 (stereo partly drawn) [BD, 11β,21-dihydroxy-16α,17α-(butylidenebis(oxy))pregna-1,4-diene-3,20-dione] |  |  |
